Results from PubChem BioAssay (NCI).
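Values below derive from 48-hour exposures of cells grown in 96-well plates, with endpoints linearly interpolated between the two concentrations bracketing the appropriate inhibition level. Here, GI50 denotes the concentration required for 50% inhibition of growth. TGI is the concentration that stops growth completely.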

Legend:
Assay in all cases: NCI tumour cell line growth inhibition, 48 h
U251 CNS = system: U251 CNS
SF-539 CNS = system: SF-539 CNS
OVCAR-4 ovarian = system: OVCAR-4 ovarian
786-0 renal = system: 786-0 renal
KM12 colon = system: KM12 colon
UO-31 renal = system: UO-31 renal
SF-268 CNS = system: SF-268 CNS
SR leukemia = system: SR leukemia
DU-145 prostate = system: DU-145 prostate
BT-549 breast = system: BT-549 breast

SMILES: Cc1ccc(S(=O)(=O)c2ccccc2[N+](=O)[O-])cc1
- TGI (U251 CNS): > 100 µM
- TGI (SF-539 CNS): > 100 µM
- TGI (OVCAR-4 ovarian): > 100 µM
- TGI (786-0 renal): > 100 µM
- TGI (KM12 colon): > 100 µM
- TGI (UO-31 renal): > 100 µM

SMILES: CCCC(=O)N[C@H]1C2C3CC4C5CC(C42)C1(C)C53 (stereo partly drawn)
- TGI (U251 CNS): > 100 µM
- TGI (SF-539 CNS): > 100 µM
- TGI (OVCAR-4 ovarian): > 100 µM
- TGI (SF-268 CNS): > 100 µM
- TGI (786-0 renal): > 100 µM
- TGI (SR leukemia): > 100 µM
- TGI (KM12 colon): > 100 µM
- TGI (UO-31 renal): > 100 µM

SMILES: O=C(O)CCNCCCCNCCC(=O)O
- TGI (U251 CNS): > 100 µM
- TGI (SF-539 CNS): > 100 µM
- TGI (OVCAR-4 ovarian): > 100 µM
- TGI (SF-268 CNS): > 100 µM
- TGI (786-0 renal): > 100 µM
- TGI (KM12 colon): > 100 µM

SMILES: N/N=C1\C(=O)N(c2ccc(Cl)cc2Cl)C(=O)C(=O)C1c1nc2ccccc2o1 (stereo not drawn)
- TGI (U251 CNS): > 100 µM
- TGI (SF-539 CNS): > 100 µM
- TGI (OVCAR-4 ovarian): > 100 µM
- TGI (SF-268 CNS): > 100 µM
- TGI (786-0 renal): > 100 µM
- TGI (KM12 colon): > 100 µM
- TGI (UO-31 renal): > 100 µM

SMILES: C[Si](C)(C)/C=C\CCO
- TGI (U251 CNS): > 100 µM
- TGI (SF-539 CNS): > 100 µM
- TGI (SF-268 CNS): > 100 µM
- TGI (786-0 renal): > 100 µM
- TGI (SR leukemia): > 100 µM
- TGI (KM12 colon): > 100 µM
- TGI (UO-31 renal): > 100 µM

SMILES: COc1ccc(C(=O)NNc2nc(Cl)nc(N3CCN(C(c4ccccc4)c4ccccc4)CC3)n2)cc1
- GI50 (DU-145 prostate): 3.93 µM
- TGI (DU-145 prostate): 13.6 µM
- GI50 (U251 CNS): 1.8 µM
- TGI (U251 CNS): 3.34 µM
- GI50 (SF-539 CNS): 1.73 µM
- TGI (SF-539 CNS): 3.21 µM
- GI50 (OVCAR-4 ovarian): 1.81 µM
- TGI (OVCAR-4 ovarian): 3.56 µM
- GI50 (SF-268 CNS): 2.01 µM
- TGI (SF-268 CNS): 4.31 µM
- GI50 (786-0 renal): 3.37 µM
- TGI (786-0 renal): 12.9 µM
- GI50 (BT-549 breast): 1.74 µM
- TGI (BT-549 breast): 3.47 µM
- GI50 (KM12 colon): > 100 µM
- TGI (KM12 colon): > 100 µM
- GI50 (UO-31 renal): 3.2 µM
- TGI (UO-31 renal): 18.5 µM

SMILES: CC(C)(C)OC(=O)NCCCn1c2c(c3ccccc3c1=O)C(=O)c1ccccc1-2
- GI50 (DU-145 prostate): 74.8 µM
- TGI (DU-145 prostate): > 100 µM
- GI50 (U251 CNS): 11.5 µM
- TGI (U251 CNS): 28.3 µM
- GI50 (SF-539 CNS): 10.3 µM
- TGI (SF-539 CNS): 29.3 µM
- GI50 (SF-268 CNS): 4.56 µM
- TGI (SF-268 CNS): 17.7 µM
- GI50 (786-0 renal): 15.1 µM
- TGI (786-0 renal): 41.6 µM
- GI50 (BT-549 breast): 31.7 µM
- TGI (BT-549 breast): > 100 µM
- GI50 (KM12 colon): 67 µM
- TGI (KM12 colon): > 100 µM
- GI50 (UO-31 renal): 71.5 µM
- TGI (UO-31 renal): > 100 µM

SMILES: C1CC2CN(CCCN3CCOCC3)C(C1)O2 (stereo not drawn)
- TGI (DU-145 prostate): > 100 µM
- TGI (U251 CNS): > 100 µM
- TGI (SF-539 CNS): > 100 µM
- TGI (OVCAR-4 ovarian): > 100 µM
- TGI (SF-268 CNS): > 100 µM
- TGI (786-0 renal): > 100 µM
- TGI (BT-549 breast): > 100 µM
- TGI (KM12 colon): > 100 µM
- TGI (UO-31 renal): > 100 µM

SMILES: Cc1cccc(C)c1NC(=O)CCc1nc(=S)[nH][nH]1
- TGI (U251 CNS): > 100 µM
- TGI (SF-539 CNS): > 100 µM
- TGI (OVCAR-4 ovarian): > 100 µM
- TGI (SF-268 CNS): > 100 µM
- TGI (786-0 renal): > 100 µM
- TGI (UO-31 renal): > 100 µM

SMILES: CCCCCCCCNCCC[C@@H](C)[C@H]1CC[C@H]2[C@@H]3[C@H](OCCCN)C[C@H]4C[C@H](OCCCN)CC[C@]4(C)[C@H]3C[C@H](OCCCN)[C@]12C
- GI50 (DU-145 prostate): 1.14 µM
- TGI (DU-145 prostate): 2.35 µM
- GI50 (U251 CNS): 2.23 µM
- TGI (U251 CNS): 6.32 µM
- GI50 (SF-539 CNS): 0.81 µM
- TGI (SF-539 CNS): 2.6 µM
- GI50 (OVCAR-4 ovarian): 8.27 µM
- TGI (OVCAR-4 ovarian): 29.4 µM
- GI50 (SF-268 CNS): 1.5 µM
- TGI (SF-268 CNS): 3.7 µM
- GI50 (786-0 renal): 1.21 µM
- TGI (786-0 renal): 3.3 µM
- GI50 (BT-549 breast): 1.43 µM
- TGI (BT-549 breast): 4.35 µM
- GI50 (UO-31 renal): 1.49 µM
- TGI (UO-31 renal): 3.72 µM

SMILES: c1ccc2c(c1)oc1ccc3nsnc3c12
- TGI (SF-539 CNS): > 100 µM
- TGI (OVCAR-4 ovarian): > 100 µM
- TGI (SF-268 CNS): > 100 µM
- TGI (786-0 renal): > 100 µM
- TGI (SR leukemia): > 100 µM
- TGI (KM12 colon): > 100 µM
- TGI (UO-31 renal): > 100 µM

SMILES: CC1CCSC(N(C(=O)N(C)c2ccccc2)c2ccccc2)=N1 (stereo not drawn)
- TGI (U251 CNS): > 100 µM
- TGI (SF-539 CNS): > 100 µM
- TGI (SF-268 CNS): > 100 µM
- TGI (786-0 renal): > 100 µM
- TGI (KM12 colon): > 100 µM
- TGI (UO-31 renal): > 100 µM

SMILES: COC(=O)CC(NC(=O)OCc1ccccc1)C(C(=O)OCc1ccccc1)C(C)(OC)OC (stereo not drawn)
- TGI (U251 CNS): > 100 µM
- TGI (SF-539 CNS): > 100 µM
- TGI (OVCAR-4 ovarian): > 100 µM
- TGI (SF-268 CNS): > 100 µM
- TGI (786-0 renal): > 100 µM
- TGI (SR leukemia): 53 µM
- TGI (UO-31 renal): 68.7 µM

SMILES: CN1CCc2c1nc(-c1ccc(Cl)cc1)c1c2N(C)CC1
- TGI (U251 CNS): 22.5 µM
- TGI (SF-539 CNS): 32.9 µM
- TGI (OVCAR-4 ovarian): > 100 µM
- TGI (SF-268 CNS): > 100 µM
- TGI (786-0 renal): > 100 µM
- TGI (KM12 colon): 45.7 µM
- TGI (UO-31 renal): 32.5 µM

SMILES: Cc1cc(N=C2C=C(Br)C(=O)C(Br)=C2)cc(CN(CC(=O)O)CC(=O)O)c1O
- TGI (DU-145 prostate): > 100 µM
- TGI (U251 CNS): > 100 µM
- TGI (SF-539 CNS): > 100 µM
- TGI (OVCAR-4 ovarian): > 100 µM
- TGI (SF-268 CNS): > 100 µM
- TGI (786-0 renal): > 100 µM
- TGI (SR leukemia): > 100 µM
- TGI (UO-31 renal): > 100 µM

SMILES: COc1ncnc(S(=O)(=O)c2ccc(N=C3C(=O)N(CN4CCN(c5cc6c(cc5F)c(=O)c(C(=O)O)cn6C5CC5)CC4)c4ccc(Cl)cc43)cc2)c1OC
- GI50 (DU-145 prostate): > 50 µM
- TGI (DU-145 prostate): > 50 µM
- GI50 (U251 CNS): 18.7 µM
- TGI (U251 CNS): > 50 µM
- GI50 (SF-539 CNS): > 50 µM
- TGI (SF-539 CNS): > 50 µM
- GI50 (SF-268 CNS): 49 µM
- TGI (SF-268 CNS): > 50 µM
- GI50 (786-0 renal): 33.7 µM
- TGI (786-0 renal): > 50 µM
- GI50 (KM12 colon): 24.2 µM
- TGI (KM12 colon): > 50 µM
- GI50 (UO-31 renal): 47.2 µM
- TGI (UO-31 renal): > 50 µM

SMILES: O=c1/c(=C\c2ccc(F)cc2)sc2n1C(c1ccc(F)cc1)C1=C(N=2)c2ccc3ccccc3c2OCC1 (stereo not drawn)
- GI50 (DU-145 prostate): > 100 µM
- TGI (DU-145 prostate): > 100 µM
- GI50 (U251 CNS): > 100 µM
- TGI (U251 CNS): > 100 µM
- GI50 (SF-539 CNS): > 100 µM
- TGI (SF-539 CNS): > 100 µM
- GI50 (OVCAR-4 ovarian): > 100 µM
- TGI (OVCAR-4 ovarian): > 100 µM
- GI50 (SF-268 CNS): > 30.8 µM
- TGI (SF-268 CNS): > 100 µM
- GI50 (786-0 renal): > 100 µM
- TGI (786-0 renal): > 100 µM
- GI50 (BT-549 breast): > 64.5 µM
- TGI (BT-549 breast): > 100 µM
- GI50 (KM12 colon): > 89.8 µM
- TGI (KM12 colon): > 100 µM
- GI50 (UO-31 renal): > 100 µM
- TGI (UO-31 renal): > 100 µM

SMILES: O=C(Nc1ccc(-c2nc(-c3cccc(OCCN4CCOCC4)c3)c(-c3ccnc(Br)c3)[nH]2)cc1)c1ccccc1
- GI50 (DU-145 prostate): 6.74 µM
- TGI (DU-145 prostate): > 100 µM
- GI50 (SF-539 CNS): 1.23 µM
- TGI (SF-539 CNS): 3.71 µM
- GI50 (SF-268 CNS): 3.82 µM
- TGI (SF-268 CNS): > 100 µM
- GI50 (786-0 renal): 0.741 µM
- TGI (786-0 renal): 2.39 µM
- GI50 (BT-549 breast): 2.71 µM
- TGI (BT-549 breast): > 100 µM
- GI50 (UO-31 renal): 2 µM
- TGI (UO-31 renal): 5.58 µM

SMILES: COc1ccc(CCn2c(=O)c3ccccc3n(C)c2=O)cc1
- TGI (U251 CNS): > 100 µM
- TGI (SF-539 CNS): > 100 µM
- TGI (OVCAR-4 ovarian): > 100 µM
- TGI (SF-268 CNS): > 100 µM
- TGI (786-0 renal): > 100 µM
- TGI (KM12 colon): > 100 µM
- TGI (UO-31 renal): > 100 µM

SMILES: S=c1nc(N/N=C/c2ccco2)c2cn[nH]c2[nH]1
- GI50 (DU-145 prostate): 61.8 µM
- TGI (DU-145 prostate): > 100 µM
- GI50 (U251 CNS): > 100 µM
- TGI (U251 CNS): > 100 µM
- GI50 (SF-539 CNS): 43.3 µM
- TGI (SF-539 CNS): > 100 µM
- GI50 (OVCAR-4 ovarian): > 100 µM
- TGI (OVCAR-4 ovarian): > 100 µM
- GI50 (SF-268 CNS): 48.4 µM
- TGI (SF-268 CNS): > 100 µM
- GI50 (786-0 renal): > 100 µM
- TGI (786-0 renal): > 100 µM
- GI50 (BT-549 breast): 75.2 µM
- TGI (BT-549 breast): > 100 µM
- GI50 (KM12 colon): 24.7 µM
- TGI (KM12 colon): > 100 µM
- GI50 (UO-31 renal): 98.1 µM
- TGI (UO-31 renal): > 100 µM
